Source: paper PMC3968014, “Design and Synthesis of a Library of Lead-Like 2,4-Bisheterocyclic Substituted Thiophenes as Selective Dyrk/Clk Inhibitors” (PLoS ONE, 2014)
Where two headings read alike, the source gives them in different places.

Key:
[1] = molecular target: T1, CK2α (Homo sapiens, UniProt P68400); assay: CK2α kinase assay (counter screen); type: biochemical; conditions: read-out: percentage of inhibition CK2α
T1 construct: purchased Life Technologies (Invitrogen SelectScreen); Dyrk1A, Dyrk2 and CK2α in-house or gifts
T1 sequence (P68400 whole entry): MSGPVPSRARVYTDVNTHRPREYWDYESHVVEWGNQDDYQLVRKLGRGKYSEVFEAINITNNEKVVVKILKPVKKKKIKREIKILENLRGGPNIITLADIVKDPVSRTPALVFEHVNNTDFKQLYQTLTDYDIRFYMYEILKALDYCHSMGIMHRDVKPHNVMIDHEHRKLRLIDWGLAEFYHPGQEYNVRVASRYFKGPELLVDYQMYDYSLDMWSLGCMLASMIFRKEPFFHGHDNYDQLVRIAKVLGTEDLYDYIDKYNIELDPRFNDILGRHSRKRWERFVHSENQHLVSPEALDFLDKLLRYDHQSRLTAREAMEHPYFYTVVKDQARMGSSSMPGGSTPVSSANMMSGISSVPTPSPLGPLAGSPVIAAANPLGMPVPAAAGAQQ
Method: Dyrk1A, Dyrk1B, Dyrk2, CK2α and Clk1 kinase reactions were performed in a reaction buffer containing 50 mM Tris/HCl, pH 7.4, 0.1 mM EGTA, 0.5 mM DTT, 10 mM MgCl2, 100 µM ATP and 0.33 µM [γ-^32ATP] as well as the appropriate substrate peptides, which were 100 µM Woodtide for the Dyrk isoforms ([…]-NH2), 60 µM CK2 substrate peptide ([…]-NH2, from Millipore) for CK2α or RS repeat peptide ([…]) for Clk1. The CK2α protein was a kind gift of M. Montenarh (Homburg). The kinase reactions were performed at 30°C for 15 min and terminated by spotting 5 µL of the reaction mixture onto a P81 phosphocellulose membrane (Whatman). The membrane was washed four times with 0.3% phosphoric acid and one time with acetone and dried. The dry membrane was exposed in a cassette to a Phosphor Screen Imaging Plate (FujiFilm) and the signals detected by scanning of the imaging plate in a Fuji FLA-3000 PhosphoImager. The spots were quantified using AIDA software (Raytest, Version 3.52) to determine the activities of the kinases in the assay reactions. […] IC50 values were calculated by fitting the data with Origin Pro 8.6 (OriginLabs). The calculated IC50 values are representative of at least two independent determinations.

[2] = Determination of logP, pka and logS (Sirius T3); type: physicochemical; conditions: Experimental
Method: The physicochemical parameters were determined on a Sirius T3 machine (Sirius Analytical machines, East Sussex, UK) by automated titration according to the manufacturer's instructions.

[3] = molecular target: T2, Dyrk1A (Homo sapiens, UniProt Q13627); assay: Dyrk1A kinase assay (32P-ATP, Woodtide); type: biochemical; conditions: read-out: percentage of inhibition Dyrk1A
T2 construct: encoding the catalytic domain of human Dyrk1A; thrombin cleavage site (N); made in house; host or cells: Escherichia coli BL21(DE3) with pRARE

[4] = molecular target: T3, Dyrk1B (Homo sapiens, UniProt Q9Y463); assay: Dyrk1B kinase assay (32P-ATP, Woodtide); type: biochemical; conditions: at 5 µM; read-out: percentage of inhibition Dyrk1B
T3 construct: purchased Life Technologies PV4649 (LOT # 877059G)
T3 sequence (Q9Y463 whole entry): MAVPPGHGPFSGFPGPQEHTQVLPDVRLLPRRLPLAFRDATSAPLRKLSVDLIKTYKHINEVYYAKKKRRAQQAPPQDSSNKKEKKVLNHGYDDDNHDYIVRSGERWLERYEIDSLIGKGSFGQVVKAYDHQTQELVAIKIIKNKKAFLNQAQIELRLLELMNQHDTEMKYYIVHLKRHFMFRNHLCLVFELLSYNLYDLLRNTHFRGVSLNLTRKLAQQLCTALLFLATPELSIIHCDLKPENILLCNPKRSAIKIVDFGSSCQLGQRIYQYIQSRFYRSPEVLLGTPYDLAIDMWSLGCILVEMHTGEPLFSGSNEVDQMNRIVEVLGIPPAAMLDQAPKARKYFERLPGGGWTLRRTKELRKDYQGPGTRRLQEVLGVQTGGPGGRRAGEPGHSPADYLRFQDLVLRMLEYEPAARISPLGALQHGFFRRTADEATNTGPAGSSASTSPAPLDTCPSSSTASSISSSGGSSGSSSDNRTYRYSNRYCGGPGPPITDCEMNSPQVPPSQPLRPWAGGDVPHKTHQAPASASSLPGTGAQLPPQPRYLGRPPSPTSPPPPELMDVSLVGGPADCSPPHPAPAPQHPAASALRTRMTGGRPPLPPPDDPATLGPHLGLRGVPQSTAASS

[5] = molecular target: T4, Dyrk2 (Homo sapiens, UniProt Q92630); assay: Dyrk2 kinase assay (32P-ATP, Woodtide); type: biochemical; conditions: for inhibition at 5 µM: read-out: percentage of inhibition Dyrk2
T4 construct: made in house; host or cells: Escherichia coli BL21(DE3) with pRARE; plasmid pGEX-2TK-Dyrk2 (gift from W. Becker, Aachen)
T4 sequence (Q92630 1-601): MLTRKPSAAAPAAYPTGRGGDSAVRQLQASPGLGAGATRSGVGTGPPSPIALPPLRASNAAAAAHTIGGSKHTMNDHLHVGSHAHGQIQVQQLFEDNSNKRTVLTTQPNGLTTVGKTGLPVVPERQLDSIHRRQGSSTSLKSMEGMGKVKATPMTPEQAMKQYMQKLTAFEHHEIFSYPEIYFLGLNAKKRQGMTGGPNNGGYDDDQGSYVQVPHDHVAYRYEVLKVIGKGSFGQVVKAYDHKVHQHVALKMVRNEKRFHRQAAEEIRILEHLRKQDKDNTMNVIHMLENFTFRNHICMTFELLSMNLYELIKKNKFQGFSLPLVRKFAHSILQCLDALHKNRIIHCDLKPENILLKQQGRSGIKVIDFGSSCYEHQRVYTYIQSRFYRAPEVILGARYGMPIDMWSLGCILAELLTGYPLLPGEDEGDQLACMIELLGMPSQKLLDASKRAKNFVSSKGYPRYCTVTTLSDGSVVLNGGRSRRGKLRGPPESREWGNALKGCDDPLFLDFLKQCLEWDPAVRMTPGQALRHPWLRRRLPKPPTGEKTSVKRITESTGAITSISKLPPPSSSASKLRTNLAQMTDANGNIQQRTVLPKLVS

[6] = molecular target: Clk1 (Homo sapiens, UniProt P49759); assay: Clk1 kinase assay (RS repeat peptide); type: biochemical; conditions: read-out: % inhibition Clk1
Chain of Clk1 (P49759 whole entry): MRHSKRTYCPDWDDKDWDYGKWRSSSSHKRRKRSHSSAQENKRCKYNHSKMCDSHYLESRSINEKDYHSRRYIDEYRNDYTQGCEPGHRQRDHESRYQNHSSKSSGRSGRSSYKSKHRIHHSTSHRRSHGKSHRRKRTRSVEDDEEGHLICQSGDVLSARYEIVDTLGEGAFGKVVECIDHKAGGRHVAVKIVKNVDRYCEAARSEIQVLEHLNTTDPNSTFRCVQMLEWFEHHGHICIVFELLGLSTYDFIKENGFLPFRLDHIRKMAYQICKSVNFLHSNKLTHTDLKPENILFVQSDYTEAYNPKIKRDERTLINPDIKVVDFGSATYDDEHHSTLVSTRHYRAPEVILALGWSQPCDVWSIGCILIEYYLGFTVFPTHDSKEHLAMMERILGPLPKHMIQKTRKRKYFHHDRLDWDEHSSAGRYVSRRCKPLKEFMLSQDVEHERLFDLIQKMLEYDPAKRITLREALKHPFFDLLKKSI

[7] = system: V79 hamster lung fibroblast cells; assay: ViaLight Toxicity Assay; type: cell-based; conditions: 48 hours
Method: V79 hamster lung fibroblast cells were plated at a density of 45,000 cells per well in a white 96 well plate and allowed to adhere and grow for 24 hours. The compounds were then applied as dilutions in cell culture medium (DMEM with 10% FCS and penicillin/streptomycin mix) at a final concentration of 5, 10, and 20 µM, respectively. The plate was further incubated for 48 hours at 37°C in a humidified atmosphere containing 5% CO2. The ATP level was detected with a LONZA ViaLight™ Plus Kit according to protocol 1 of the vendor's instructions. Luminescence was measured in a POLARstar plate reader (BMG Labtech, Offenburg, Germany). The background luminescence was obtained from equally treated, cell-free wells containing serum, and subtracted from all values. Inhibition values obtained for different compound concentrations were compared using the two-sided Student's t-test; levels of significance thus obtained are indicated by asterisks.

[8] = Metabolic Stability Assay; conditions: male, Sprague-Dawley, rat, microsomes
[9] = system: U2OS osteosarcoma cells; assay: Caspase-3 Assay (Caspase-Glo 3/7); type: cell-based; conditions: starved U2OS cells, 48 hours, vs DMSO control
Method: U2OS osteosarcoma cells were seeded in a 96 well flat bottom plate (15*10^3 cells/well). […] The induction of caspase-3/7 activity was measured using the Promega Caspase-Glo 3/7 assay system (Promega, LOT 0000054568). The resulting luciferase reaction signals that are proportional to the caspase induction were measured in a POLARstar plate reader (BMG Labtech, Offenburg, Germany). […] Values obtained for different compound concentrations were compared using the two-sided Student's t test; levels of significance thus obtained are indicated by asterisks.

Q: With `c1cncc(-c2csc(-c3cccnc3)c2)c1` [Compound 4] as the molecule, how does the inhibition at 5 µM [1] read?
A: Its inhibition at 5 µM is 18.5%.

Q: And the logP [2]?
A: The logP was 2.47.

Q: What about the solubility ([2]; read-out: Solubility) of the same molecule?
A: The solubility was 500 µg/mL.

Q: What about the solubility ([2]; read-out: logS (converted)) of the same molecule?
A: Its solubility is 2140 µM.

Q: And the pKa ([2]; read-out: pka1)?
A: The pKa was 3.48.

Q: And the pKa ([2]; read-out: pka2)?
A: Its pKa is 4.8.

Q: For `COc1ccc2c(c1)[nH]c1c(C)nccc12` [Harmine, harmine, reference compound], which inhibition at 5 µM [3] is on record?
A: Its inhibition at 5 µM is 98%.

Q: And the inhibition at 5 µM [4]?
A: The inhibition at 5 µM was 98%.

Q: And the IC50 ([5]; IC50 Dyrk2, 100 µM ATP)?
A: Its IC50 is 3 µM.

Q: And the inhibition at 5 µM [5]?
A: Its inhibition at 5 µM is 68%.

Q: And the inhibition at 5 µM [6]?
A: The inhibition at 5 µM was 97%.

Q: What about the “influence on cell viability (cellular ATP levels)” value ([7]; V79 cells, 5 µM) of the same molecule?
A: Its value is “slightly toxic”.

Q: And the CLhep predicted at 0.5 µM [8]?
A: Its CLhep predicted at 0.5 µM is 53 mL/min/kg.

Q: And the half-life at 0.5 µM [8]?
A: Its half-life at 0.5 µM is 18 min.

Q: With `c1cncc(-c2cc(-c3ccncc3)cs2)c1` [Compound 11] as the molecule, how does the inhibition at 5 µM ([3]; at 5 µM) read?
A: The inhibition at 5 µM was 10%.

Q: What about the inhibition at 5 µM [4] of the same molecule?
A: The inhibition at 5 µM was 10%.

Q: And the inhibition at 5 µM ([5]; at 5 µM)?
A: Its inhibition at 5 µM is 20%.

Q: And the inhibition at 5 µM [1]?
A: Its inhibition at 5 µM is 0%.

Q: And the caspase-3/7 activity [9]?
A: Its caspase-3/7 activity is “only a slight increase”.

Q: And the “influence on cell growth (cellular ATP levels)” value ([7]; V79 cells, 5, 10 and 20 µM)?
A: Its value is “no influence”.
